Laboratory results published in patent publication EP3478687B1 (Daewoong Pharmaceutical Co., Ltd., priority 2016, dated 2018).

Experiments:
[1] = molecular target: T1, Recombinant purified human BTK (Homo sapiens, UniProt Q06187); test: BTK kinase inhibitory activity, ADP-Glo kinase assay (Promega V9071); type: biochemical; settings: ATP 10 uM, 8 ng BTK per reaction, 1 hour 30 °C, chemiluminescence
T1 construct: purchased Promega V9071
Method in brief: (§1)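 Recombinant human kinases in Tris pH 7.5 buffer with MgCl2, BSA and DTT (MnCl2 added for BTK), 4 ng JAK3 or 8 ng BTK per reaction. Poly(Glu4,Tyr1) 0.2 µg/µL with 5 µM (JAK3) or 10 µM (BTK) ATP, 1% DMSO, 1 h at 30 °C. ADP-Glo luminescence used to derive IC50.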

[2] = molecular target: T2, Recombinant purified human JAK3 (Homo sapiens, UniProt P52333); test: JAK3 kinase inhibitory activity, ADP-Glo kinase assay (Promega V9441); type: biochemical; settings: ATP 5 uM, 4 ng JAK3 per reaction, 1 hour 30 °C, chemiluminescence
T2 construct: purchased Promega V9441
T2 sequence (P52333 1-1124): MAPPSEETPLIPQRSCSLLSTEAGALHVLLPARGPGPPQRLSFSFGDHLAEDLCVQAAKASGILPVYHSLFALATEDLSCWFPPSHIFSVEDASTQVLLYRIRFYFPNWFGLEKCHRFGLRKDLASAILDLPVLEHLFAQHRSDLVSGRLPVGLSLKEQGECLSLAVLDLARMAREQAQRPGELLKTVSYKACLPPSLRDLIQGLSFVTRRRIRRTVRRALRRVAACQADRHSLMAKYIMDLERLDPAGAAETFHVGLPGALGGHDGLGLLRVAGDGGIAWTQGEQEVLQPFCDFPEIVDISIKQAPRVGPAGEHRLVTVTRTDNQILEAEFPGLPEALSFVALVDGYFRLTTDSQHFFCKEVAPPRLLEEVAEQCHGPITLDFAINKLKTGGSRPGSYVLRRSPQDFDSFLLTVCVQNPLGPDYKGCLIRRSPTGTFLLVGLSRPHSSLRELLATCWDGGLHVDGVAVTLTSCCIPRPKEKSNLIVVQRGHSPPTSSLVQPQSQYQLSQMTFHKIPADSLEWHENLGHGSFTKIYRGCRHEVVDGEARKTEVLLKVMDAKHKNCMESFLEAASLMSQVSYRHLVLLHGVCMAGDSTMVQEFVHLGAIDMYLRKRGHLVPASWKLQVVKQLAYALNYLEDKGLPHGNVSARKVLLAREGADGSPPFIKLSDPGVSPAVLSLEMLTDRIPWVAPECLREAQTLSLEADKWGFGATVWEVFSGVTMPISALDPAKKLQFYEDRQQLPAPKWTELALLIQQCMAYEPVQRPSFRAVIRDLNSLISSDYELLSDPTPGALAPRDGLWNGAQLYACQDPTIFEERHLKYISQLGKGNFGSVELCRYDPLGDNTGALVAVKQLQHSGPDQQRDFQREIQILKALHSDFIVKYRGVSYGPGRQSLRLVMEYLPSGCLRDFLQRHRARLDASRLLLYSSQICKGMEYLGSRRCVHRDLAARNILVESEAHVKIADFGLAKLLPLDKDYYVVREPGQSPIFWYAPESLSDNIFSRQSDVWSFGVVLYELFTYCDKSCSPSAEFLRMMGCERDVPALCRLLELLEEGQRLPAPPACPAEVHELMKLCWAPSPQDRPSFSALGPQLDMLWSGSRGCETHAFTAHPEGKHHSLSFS
Method in brief: as §1

T1 sequence (Q06187 whole entry): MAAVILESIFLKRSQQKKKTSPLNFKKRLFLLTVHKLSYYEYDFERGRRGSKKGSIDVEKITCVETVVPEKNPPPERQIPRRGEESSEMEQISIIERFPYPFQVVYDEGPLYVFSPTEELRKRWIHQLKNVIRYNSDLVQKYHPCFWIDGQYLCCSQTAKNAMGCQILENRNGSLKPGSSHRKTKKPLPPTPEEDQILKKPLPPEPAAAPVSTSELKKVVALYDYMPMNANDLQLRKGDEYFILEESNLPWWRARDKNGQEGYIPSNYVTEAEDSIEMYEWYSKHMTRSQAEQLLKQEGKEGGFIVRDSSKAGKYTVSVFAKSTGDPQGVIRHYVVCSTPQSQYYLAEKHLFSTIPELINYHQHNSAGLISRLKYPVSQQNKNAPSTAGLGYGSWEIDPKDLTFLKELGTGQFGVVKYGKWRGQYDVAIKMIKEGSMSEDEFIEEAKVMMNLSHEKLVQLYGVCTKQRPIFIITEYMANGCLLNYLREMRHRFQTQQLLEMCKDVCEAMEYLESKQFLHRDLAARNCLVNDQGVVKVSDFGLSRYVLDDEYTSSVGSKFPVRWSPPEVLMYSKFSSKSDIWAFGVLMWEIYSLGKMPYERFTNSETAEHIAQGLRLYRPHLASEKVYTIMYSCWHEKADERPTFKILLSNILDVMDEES

SMILES	IC50 [1] [nM]	IC50 [2] [nM]
CCn1cc(Nc2nc(N[C@@H]3CCCN(C(=O)/C(C#N)=C/C4CC4)C3)c3cn[nH]c3n2)cn1 [Example 175, (R,E)-3-cyclopropyl-2-(3-((6-((1-ethyl-1H-pyrazol-4-yl)amino)-1H-pyrazolo[3,4-d]pyrimidin-4-yl)amino)piperidine-1-carbonyl)acrylonitrile]	1.4	14.9
CCn1cc(Nc2nc(S[C@@H]3CCCN(C(=O)/C(C#N)=C/C4CC4)C3)c3cn[nH]c3n2)cn1 [Example 176, (R,E)-3-cyclopropyl-2-(3-((6-((1-ethyl-1H-pyrazol-4-yl)amino)-1H-pyrazolo[3,4-d]pyrimidin-4-yl)thio)piperidine-1-carbonyl)acrylonitrile]	3	42.1
CCn1cc(Nc2nc(N[C@@H]3CCCN(C(=O)/C(C#N)=C/C4CC4)C3)c3c(Cl)c[nH]c3n2)cn1 [Example 177, (R,E)-2-(3-((5-chloro-2-((1-ethyl-1H-pyrazol-4-yl)amino)-7H-pyrrolo[2,3-d]pyrimidin-4-yl)amino)piperidine-1-carbonyl)-3-cyclopropylacrylonitrile]	1.2	0.4
CCn1cc(Nc2nc(N[C@@H]3CCCN(C(=O)/C(C#N)=C/C(C)C)C3)c3c(Cl)c[nH]c3n2)cn1 [Example 178, (R,E)-2-(3-((5-chloro-2-((1-ethyl-1H-pyrazol-4-yl)amino)-7H-pyrrolo[2,3-d]pyrimidin-4-yl)amino)piperidine-1-carbonyl)-4-methylpent-2-enenitrile]	0.9	0.5
CCn1cc(Nc2nc(S[C@@H]3CCCN(C(=O)/C(C#N)=C/C4CC4)C3)c3c(Cl)c[nH]c3n2)cn1 [Example 179]	8.3	1.1
CCn1cc(Nc2nc(S[C@@H]3CCCN(C(=O)/C(C#N)=C/C(C)C)C3)c3c(Cl)c[nH]c3n2)cn1 [Example 180, (R,E)-2-(3-((5-chloro-2-((1-ethyl-1H-pyrazol-4-yl)amino)-7H-pyrrolo[2,3-d]pyrimidin-4-yl)thio)piperidine-1-carbonyl)-4-methylpent-2-enenitrile]	3.1	1.5
CCn1cc(Nc2nc(S[C@@H]3CCCN(C(=O)/C(C#N)=C/C4CC4)C3)c3c(Cl)n[nH]c3n2)cn1 [Example 181]	2.2	30.2
CCn1cc(Nc2nc(N[C@@H]3CCCN(C(=O)/C(C#N)=C/C4CC4)C3)c3c(F)c[nH]c3n2)cn1 [Example 182]	2.1	2.3
CCn1cc(Nc2nc(N[C@H]3CN(C(=O)CCl)CC[C@H]3C)c3c(Cl)n[nH]c3n2)cn1 [Example 183, 2-chloro-1-((3R,4R)-3-((3-chloro-6-((1-ethyl-1H-pyrazol-4-yl)amino)-1H-pyrazolo [3,4-d]pyrimidin-4-yl)amino)-4-methylpiperidin-1-yl)ethan-1-one]	1.6	0.8
C=CC(=O)N1CCC[C@@H](Nc2nc(Nc3cnn(CC(F)F)c3)nc3[nH]nc(C)c23)C1 [Example 184, (R)-1-(3-((6-((1-(2,2-difluoroethyl)-1H-pyrazol-4-yl)amino)-3-methyl-1H-pyrazolo[3,4-d]pyrimidin-4-yl)amino)piperidin-1-yl)prop-2-en-1-one]	1.4	4.4
C=CC(=O)N1CCC[C@@H](Nc2nc(Nc3cnn(CC)c3)nc3[nH]nc(C)c23)C1 [Example 185, (R)-1-(3-((6-((1-ethyl-1H-pyrazol-4-yl)amino)-3-methyl-1H-pyrazolo [3,4-d]pyrimidin-4-yl)amino)piperidin-1-yl)prop-2-en-1-one]	2.1	15.1
C=CC(=O)N1CCC[C@@H](Nc2nc(Nc3cnn(CC(C)C)c3)nc3[nH]nc(C)c23)C1 [Example 186, (R)-1-(3-((6-((1-isobutyl-1H-pyrazol-4-yl)amino)-3-methyl-1H-pyrazolo [3,4-d]pyrimidin-4-yl)amino)piperidin-1-yl)prop-2-en-1-one]	1.6	18
C=CC(=O)N1CCC[C@@H](Nc2nc(Nc3cnn(C(C)(C)C)c3)nc3[nH]nc(C)c23)C1 [Example 187, (R)-1-(3-((6-((1-(tert-butyl)-1H-pyrazol-4-yl)amino)-3-methyl-1H-pyrazolo [3,4-d]pyrimidin-4-yl)amino)piperidin-1-yl)prop-2-en-1-one]	1.8	14.6
C=CC(=O)N1CCC[C@@H](Nc2nc(Nc3cnn(C4CC4)c3)nc3[nH]nc(C)c23)C1 [Example 188, (R)-1-(3-((6-((1-cyclopropyl-1H-pyrazol-4-yl)amino)-3-methyl-1H-pyrazolo[3,4-d]pyrimidin-4-yl)amino)piperidin-1-yl)prop-2-en-1-one]	2.9	23.5
C=CC(=O)N1CCC[C@@H](Nc2nc(Nc3cnn(CC)c3)nc3[nH]nc(SC)c23)C1 [Example 189, (R)-1-(3-((6-((1-ethyl-1H-pyrazol-4-yl)amino)-3-(methylthio)-1H-pyrazolo [3,4-d]pyrimidin-4-yl)amino)piperidin-1-yl)prop-2-en-1-one]	0.721	3.4
C=CC(=O)N1CCC[C@@H](Nc2nc(Nc3cnn(CC(F)F)c3)nc3[nH]nc(SC)c23)C1 [Example 190, (R)-1-(3-((6-((1-(2,2-difluoroethyl)-1H-pyrazol-4-yl)amino)-3-(methylthio)-1H-pyrazolo[3,4-d]pyrimidin-4-yl)amino)piperidin-1-yl)prop-2-en-1-one]	0.76	2
C=CC(=O)N1CCC[C@@H](Nc2nc(Nc3cnn(C)c3)nc3[nH]nc(SC)c23)C1 [Example 191, (R)-1-(3-((6-((1-methyl-1H-pyrazol-4-yl)amino)-3-(methylthio)-1H-pyrazolo [3,4-d]pyrimidin-4-yl)amino)piperidin-1-yl)prop-2-en-1-one]	0.76	4.2
C=CC(=O)N1CCC[C@@H](Nc2nc(Nc3cnn(C(C)(C)C)c3)nc3[nH]nc(SC)c23)C1 [Example 192, (R)-1-(3-((6-((1-(tert-butyl)-1H-pyrazol-4-yl)amino)-3-(methylthio)-1H-pyrazolo [3,4-d]pyrimidin-4-yl)amino)piperidin-1-yl)prop-2-en-1-one]	0.726	3
C=CC(=O)N1CC[C@@H](F)[C@@H](Nc2nc(Nc3cnn(CC)c3)nc3[nH]nc(Cl)c23)C1 [Example 193, 1-((3S,4R)-3-((3-chloro-6-((1-ethyl-1H-pyrazol-4-yl)amino)-1H-pyrazolo[3,4-d]pyrimidin-4-yl)amino)-4-fluoropiperidin-1-yl)prop-2-en-1-one]	0.9	0.5
